According to PMC10062662, “Quantitative determination of lurbinectedin, its unbound fraction and its metabolites in human plasma utilizing ultra-performance LC–MS/MS” (PLOS ONE, 2023):
Like-named read-outs stand apart in the source and are kept apart here.

Legend:
[1] = Stability of stock and working solutions at -20°C; format: physicochemical; details: -20°C ±5°C
Method: The stability of stock and working solutions, as well the stability of IS stock solution, following storage at -20°C ±5°C were investigated by concordance verification by comparing the stored solution against a freshly prepared one.

[2] = Lurbinectedin concentration in treated patient plasma sample (UPLC-MS/MS); format: in vivo, human; details: single treated patient plasma sample of Fig 2
Method: The sample extraction was performed by adding 100 μL of the CS, QC or test sample, 50 μL of aqueous IS solution and 50 μL of 1 M ammonium hydroxide to a 300-μL 96-well microtiter plate. This was then mixed and transferred to a 200-mg Isolute SLE+ plate. After 5 minutes of equilibrium, the samples were then eluted from the SLE plate with 1 mL of MTBE into glass inserts and dried under nitrogen. The samples were then reconstituted with 40 μL of acetonitrile:water (1:1, v:v) with 0.1% of formic acid prior to analysis.
The ultra-performance liquid chromatography (UPLC) system was coupled to a triple quadrupole mass spectrometer. The UPLC system was a Acquity system (Waters, Milford, MA, USA) and composed of a binary pump, column oven and cooled auto sampler. The mass spectrometer was a TQD with an electrospray ionization source from Waters.
The analytical column was a BEH C18 (1.7 μm, 50 × 2.1 mm) and was used in conjunction with a pre-column frit (0.2 μm, 2.1 mm) from Waters. The chromatographic separation was performed at 50°C with a flow rate of 0.4 mL/minute utilizing a linear gradient of water (A) and acetonitrile (B), both with 0.1% ammonium hydroxide: 10% to 100% B from 0.00 to 1.00 minute; isocratic at 100% B for 1.50 minute, then returning to initial conditions from 2.50 to 2.51 minutes with a total run time of 3.5 minutes. The samples were kept at 10°C until injection (10 μL). […]

[3] = Stability in human K3-EDTA plasma under different test conditions; format: in vitro ADME
Method: Likewise, a wide range of long-term stability tests reflecting the sort of real-world storage issues that can occur in hospital-based clinical studies (e.g., short-term storage at -20°C before transfer to -80°C, availability of -60°C but not -80°C), was evaluated to ensure plasma samples are analyzed before degradation can occur. Therefore, the following plasma stability tests were performed: room temperature, freeze thaw (one cycle consisted of 2 hours at room temperature followed by freezing for at least 12 hours at -80°C ± 10°C) and long-term (at -20°C ± 5°C, -60°C ± 10°C and -80°C ± 10°C). For each stability test, two concentrations (LQC and HQC) and six replicates per level were analyzed. For acceptance criteria, the precision (%CV) was ≤15% and the bias when compared with the nominal concentration was ±15%. […]

[4] = Plasma protein binding by rapid equilibrium dialysis (RED) in K3-EDTA plasma from donors; format: in vitro ADME, human; details: human; for fraction unbound at 8 h, 100 ng/mL: RED 8 hours 37°C; for fraction unbound at 8 h, 100 ng/mL / fraction unbound at 8 h, 500 ng/mL: read-out: mean percent unbound
Excerpt: (§1) RED was considered the best alternative over other methods (e.g., ultrafiltration) to separate lurbinectedin unbound fraction (fu), due to high non-specific binding (NSB) of lurbinectedin leading to adsorption. The RED device consists of a cylinder of dialysis membrane with an 8-kDa molecular weight cut-off held in place by a polytetrafluoroethylene support; the dialysis membrane tube is closed at one end. The RED devices are disposable and used in a reusable polytetrafluoroethylene support plate (holds a maximum of 48 devices). The design of the plate and device allows for PBS to be added in such a way that it can circulate freely around the cylinder of dialysis membrane. In use, spiked plasma (400 μL) is added to the dialysis membrane cylinder part of the RED device, and PBS (600 μL) is added to the other side. The plate, device and volumes used result in a consistent fluid level across both sides of the membrane, preventing mass movement of fluid across the membrane due to hydrostatic pressure.
(§2) Each measurement was performed using three RED devices; the devices were placed in the plate and spiked plasma and PBS were added. The plate was then mixed on an incubating microplate shaker at 100 rpm and 37°C for 8 hours.
(§3) Both the plasma (diluted 1 in 20 with plasma:PBS 1:1, v:v) and PBS (diluted with plasma 1:1, v:v) were assayed in triplicate using the extraction and UPLC-MS/MS method described above. Transfer of the PBS from the incubation plate into an equivalent volume of plasma prior to assay was performed using pipette tips that had been pre-treated with Sigmacote®.
(§4) In vitro PPB experiments to determine lurbinectedin fu were conducted with RED in K3-EDTA plasma from donors. Fresh plasma (not previously frozen), previously frozen plasma (fresh plasma subjected to four cycles of freeze [at -80°C ±10°C for ≥12 hours] then thawed [at room temperature for 2 hours]) and diluted fresh plasma (not previously frozen, diluted 1:1 with PBS prior to incubation) were spiked to 100 ng/mL with lurbinectedin and then equilibrated with PBS in RED devices for 8 hours at 37°C and assayed.
(§5) In addition, the stability of lurbinectedin PPB in fresh plasma following storage at -80°C ±10°C was evaluated; aliquots of fresh plasma samples (not previously frozen) from three donors were spiked with 500 ng/mL of lurbinectedin. The samples were stored for at least 21, 30, 62 and 91 days prior to analysis; the day 0 aliquots were not frozen before analysis. The spiked aliquots from the three donors were equilibrated with PBS in RED devices in triplicate. The samples generated in the RED devices were analyzed in triplicate.

plasma protein = experiment: as above; format: in vitro ADME, human; details: for percent bound: 100 ng/mL, RED 8 hours 37°C
Excerpt: as §1, §2, §3, §4, §5

[5] = 4 freeze-thaw cycles, nom. conc. 0.3 ng/mL
[6] = 4 freeze-thaw cycles, nom. conc. 40 ng/mL
[7] = 37°C, 8 hours, nom. conc. 0.3 ng/mL
[8] = 37°C, 8 hours, nom. conc. 40 ng/mL
[9] = -20°C ±5°C, 23 days, nom. conc. 0.3 ng/mL
[10] = -20°C ±5°C, 23 days, nom. conc. 40 ng/mL
[11] = -60°C ±10°C, 245 days, nom. conc. 0.3 ng/mL
[12] = -60°C ±10°C, 245 days, nom. conc. 40 ng/mL
[13] = -80°C ±10°C, 853 days, nom. conc. 0.3 ng/mL
[14] = -80°C ±10°C, 853 days, nom. conc. 40 ng/mL
[15] = Ambient, 16.5 hours, nom. conc. 0.3 ng/mL
[16] = Ambient, 16.5 hours, nom. conc. 40 ng/mL

In the case of `COc1ccc2[nH]c3c(c2c1)CCN[C@]31CS[C@@H]2c3c(OC(C)=O)c(C)c4c(c3[C@H](COC1=O)N1[C@@H]2[C@H]2c3c(cc(C)c(OC)c3O)C[C@@H]([C@@H]1O)N2C)OCO4` [Lurbinectedin], the “stability of working solution following storage for 7 days” value ([1]; 5 ng/mL in DMSO:ammonium acetate 10 mM ~pH 3 (1:1, v:v)) is reported as “not demonstrated”, the “stability of stock solution in DMSO” value ([1]; 1 mg/mL in DMSO) is reported as no less than 32 days and the “plasma concentration in a treated patient sample” value [2] is reported as 177 ng/mL. The Bias [3, 5] was -4%, the Measured conc. [3, 5] was 0.289 ng/mL and the Bias [3, 6] was -5%. For the same compound, the Measured conc. [3, 6] was 38.0 ng/mL, the Bias [3, 7] was -2% and the Measured conc. [3, 7] was 0.293 ng/mL. It also gave a Bias [3, 8] of 1%, a Measured conc. [3, 8] of 40.2 ng/mL and a Bias [3, 9] of -10%. It also gave a Measured conc. [3, 9] of 0.271 ng/mL, a Bias [3, 10] of -9% and a Measured conc. [3, 10] of 36.2 ng/mL. It also gave a Bias [3, 11] of -5%, a Measured conc. [3, 11] of 0.285 ng/mL and a Bias [3, 12] of -10%. For the same compound, the Measured conc. [3, 12] was 36.1 ng/mL, the Bias [3, 13] was -10% and the Measured conc. [3, 13] was 0.269 ng/mL. The Bias [3, 14] was -9%, the Measured conc. [3, 14] was 36.3 ng/mL and the Bias [3, 15] was -8%. It also gave a Measured conc. [3, 15] of 0.276 ng/mL, a Bias [3, 16] of 3% and a Measured conc. [3, 16] of 41.0 ng/mL. The fraction unbound at 8 h, 100 ng/mL ([4]; fresh K3-EDTA plasma diluted 1:1 with PBS, diluted fresh plasma (1:1 with PBS)) was 0.00668, the fraction unbound at 8 h, 500 ng/mL ([4]; fresh K3-EDTA plasma from three donors (not frozen), fresh plasma from three donors, day 0 (not frozen)) was 0.00151 to 0.00335 and the fraction unbound at 8 h ([4]; plasma, human plasma, RED (abstract)) was 0.004. The fraction unbound at 8 h, 100 ng/mL ([4]; previously frozen K3-EDTA plasma (four freeze-thaw cycles), previously frozen plasma (four freeze-thaw cycles)) was 0.00443, the fraction unbound at 8 h, 500 ng/mL ([4]; three donors, day 21 after storage at -80°C ±10°C) was 0.00206 to 0.00319 and the fraction unbound at 8 h, 500 ng/mL ([4]; three donors, day 30 after storage at -80°C ±10°C) was 0.00168 to 0.00266. For the same compound, the fraction unbound at 8 h, 500 ng/mL ([4]; three donors, day 62 after storage at -80°C ±10°C) was 0.00196 to 0.00286, the fraction unbound at 8 h, 500 ng/mL ([4]; three donors, day 91 after storage at -80°C ±10°C) was 0.00159 to 0.00213 and the percent bound (plasma protein; diluted fresh plasma (1:1 with PBS)) was 99.3%. It also gave a percent bound (plasma protein; fresh plasma (not previously frozen)) of 99.6%, a fraction unbound at 8 h, 500 ng/mL (plasma protein; human, K3-EDTA plasma (fresh, from three donors), following storage at -80°C ±10°C for ≥91 days, read-out: PPB) of less than 0.01 and a percent bound (plasma protein; previously frozen plasma (four freeze-thaw cycles)) of 99.6%. The “stability of PPB in fresh plasma following storage” value (plasma protein; storage at -80°C ±10°C, three donors) was no less than 91 days.
